According to patent US4137236A, “Amino-spiro[oxa(or thia)cycloalkane-penam]-carboxylic” (U C B, Societe Anonyme, priority 1977, dated 1979):

Columns and labels:
Format in all cases: cell-based
[1] = test system: Staphylococcus aureus 6538; test: MIC in gelose culture medium (relative to reference penicillin); details: S.AUREUS 6538; reference 6-amino-penicillanic acid = 1
Procedure: This is a Gram-positive coccus which is particularly sensitive to penicillins and which has a low resistance mechanism. This strain of Staphylococcus is, therefore, representative of a maximum sensitivity of the species.
(§1) For a certain number of compounds of formula (XV), the minimum inhibitory concentration (MIC) was determined as follows:
(§2) The products to be tested are introduced in increasing concentrations into a gelose culture medium in Petri dishes. A multiple inoculator is used to deposit simultaneously drops (10 microliters) of inoculum (suspension of approximately 10^5 bacteria per ml) onto the surface of the medium. After incubation at 37° C for 24 hours, the growth of the bacteria is observed. By definition, the MIC is expressed by the minimum concentration of tested compound which inhibits the multiplication of the bacteia. In the following results, however, the MIC is given as being equal to 1 for the reference compounds and the activity figures given for the tested compounds of formula (XV) are, therefore, relative values. This presentation of the results is more correct and the most reproducible because, for one and the same bacterial strain, different MIC values can be observed if they are measured at different times. This is bound up with the "seasonal" variations in the strains and their nutrient medium.

[2] = test system: Staphylococcus aureus 52149; test: as above; details: S.AUREUS 52149; reference 6-amino-penicillanic acid = 1
Procedure: This is a Gram-positive coccus, the intrinsic sensitivity of the receptor of which is equivalent to that of the preceding strain but which produces a beta-lactamase which is typical of the species and which renders it resistant to all the penicillins which are sensitive to hydrolysis.
as §1, §2

Escherichia coli B = test: as above; details: E.COLI B; reference 6-amino-penicillanic acid = 1
Procedure: This is a well-known collection strain of Escherichia coli which produces very little beta-lactamase (of type I) and is, therefore, very sensitive to penicillins. As regards the classification of the beta-lactamases, use is here made of that proposed by M. H. RICHMOND and R. B. SYKES (see Advances in Microbial Physiology,9,(1973),pp.43 and 45).
as §1, §2

[3] = test system: Escherichia coli B-Ampi R; test: as above; details: E.COLI B AMPI-R; reference 6-amino-penicillanic acid = 1
Procedure: This is a mutant of the preceding strain which we have produced.
as §1, §2

[4] = test system: Gram-positive and Gram-negative bacteria; test: Comparative antibacterial activity spectra; details: towards both Gram-positive and Gram-negative bacteria
Procedure: as §2

## N[C@@H]1C(=O)N2[C@@H]1SC1(CCOCC1)[C@@H]2C(=O)O (relative stereo) [Compound D, 6-amino-2',3',5',6'-tetrahydro-spiro[penam-2,4'-[4H]-pyran]-3-carboxylic acid]
[1]
  MIC relative to reference compound (=1): 0.5
[2]
  MIC relative to reference compound (=1): 0.5
Escherichia coli B
  MIC relative to reference compound (=1): 0.3
[3]
  MIC relative to reference compound (=1): 0.3
[4]
  Activity as compared with 6-amino-penicillanic acid (in words): better activity
